Assay results published in patent US5578445A, “In vitro method of evaluating the effects of a substance” (priority 1991, dated 1996).
Where two headings read alike, the source gives them in different places.

How the values were obtained:
MCF7 = assay: Proliferation, amount of ATP after 6 days, MCF7; conditions: for effect on growth: MCF7; for activity at 0.0001 µM: +E2 (0.1 nM)
ZR 75-1 = assay: Proliferation, amount of ATP after 6 days, ZR 75-1; assay type: cell-based, human; conditions: for activity at 0.0001 µM: +E2 (0.1 nM), 6 days
Description: The growth is determined by measuring the amount of ATP in the cells after incubation with ligands for 6 days. […]
Samples of the cells ZR 75-1 (8000 cells/well) and MCF7 (4000 cells/well), respectively, were distributed into microtiter plates having 96 wells.
The following hormone additions were made:
The medium was replaced by fresh medium of the same composition as on day 6, and hormone additions as on day 6.
6 days after hormone addition the number of cells and their morphology were investigated. Medium from each well was poured off. To each well was added 100 μl 1% TCA (trichloro acetic acid).

Structure (SMILES) | activity at 1 µM (MCF7; Homo sapiens, MCF7, 144 h, read-out: relative amount of ATP (no hormone added = 1), MCF7, + 10^-6 M Tam, -E2, 6 days) | activity at 0.1 µM (MCF7; Homo sapiens, MCF7, 144 h, read-out: relative amount of ATP (no hormone added = 1), MCF7, + 10^-7 M Tam, -E2, 6 days) | activity at 0.01 µM (MCF7; Homo sapiens, MCF7, 144 h, read-out: relative amount of ATP (no hormone added = 1), MCF7, + 10^-8 M Tam, -E2, 6 days) | activity at 0.001 µM (MCF7; Homo sapiens, MCF7, 144 h, read-out: relative amount of ATP (no hormone added = 1), MCF7, + 10^-9 M Tam, -E2, 6 days) | effect on growth (MCF7; Tamoxifen alone) | effect on growth (ZR 75-1; 10^-7 M Tamoxifen alone, listed as Tamoxifen) | effect on growth (ZR 75-1; 10^-7 M Tamoxifen alone, listed as tamoxifen) | activity at 1 µM (ZR 75-1; Homo sapiens, ZR-75-1, 144 h, + 10^-6 M Tam, -E2, 6 days, read-out: relative amount of ATP (no hormone added = 1)) | activity at 0.1 µM (ZR 75-1; Homo sapiens, ZR-75-1, 144 h, + 10^-7 M Tam, -E2, 6 days, read-out: relative amount of ATP (no hormone added = 1)) | activity at 0.01 µM (ZR 75-1; Homo sapiens, ZR-75-1, 144 h, + 10^-8 M Tam, -E2, 6 days, read-out: relative amount of ATP (no hormone added = 1)) | activity at 0.001 µM (ZR 75-1; Homo sapiens, ZR-75-1, 144 h, + 10^-9 M Tam, -E2, 6 days, read-out: relative amount of ATP (no hormone added = 1)) | Tamoxifen concentration at which an antagonistic effect can be seen (ZR 75-1; presence of 0.1 nM E2) | activity at 0.0001 µM (MCF7; Homo sapiens, MCF7, 144 h, read-out: relative amount of ATP (no hormone added = 1), MCF7, No LY 117018 added, 6 days, Experiment 2) | activity at 0.0001 µM (MCF7; Homo sapiens, MCF7, 144 h, read-out: relative amount of ATP (no hormone added = 1), MCF7, No Tam added, 6 days, Experiment 1) | effect on growth (MCF7; 0.1 nM E2) | effect on growth (ZR 75-1; 0.1 nM E2) | activity at 0.0001 µM (ZR 75-1; Homo sapiens, ZR-75-1, 144 h, No LY 117018 added, Experiment 2, read-out: relative amount of ATP (no hormone added = 1)) | activity at 0.0001 µM (ZR 75-1; Homo sapiens, ZR-75-1, 144 h, No Tam added, Experiment 1, read-out: relative amount of ATP (no hormone added = 1))
CC/C(=C(\c1ccccc1)c1ccc(OCCN(C)C)cc1)c1ccccc1 [Tam, tamoxifen] | 94% | 109% | 122% | 96% | has no effect | functions as a weak agonist | weak agonistic effect | 131% | 155% | 109% | 91% | 10^-6 M | – | – | – | – | – | –
C[C@]12CC[C@@H]3c4ccc(O)cc4CC[C@H]3[C@@H]1CC[C@@H]2O [E2, estradiol] | – | – | – | – | – | – | – | – | – | – | – | – | 230% | 266% | increase their growth dramatically | increase their growth dramatically | 468% | 351%
